In patent EP1228058B1, “BENZOPYRANYL GUANIDINE DERIVATIVES, PROCESS FOR PREPARATION THEREOF, AND PHARMACEUTICAL COMPOSITIONS CONTAINING THEM” (Dongbu Hannong Chemical Co., Ltd., priority 1999, dated 2001):

Assays:
rat aorta = assay: Vasodilation effects on isolated blood vessels of rats (methoxamine-constricted aortic rings); type: cell-based; settings: isolated rat aorta constricted with methoxamine (3 uM); read-out: Vasodilation Activity (in Vitro, rat aorta) (IC50)
Excerpt: Male Sprague-Dawly rats (350-450 g, obtained from the Experimental Animal Team of the Korea Research Institute of Chemical Technology) were knocked unconscious by hitting the occipital region, sacrificed by cervical dislocation, and underwent thoracotomy. After being quickly removed, the thoracic aorta was deprived of the adipose tissue and cut into aortic rings of 3 mm width. The aorta was lightly rubbed with a modified Krebs Henseleit buffer (Physiological Salt Solution, PSS) soaked cotton club to remove the inner epithelial layer therefrom. While being suspended in an organ bath containing a physiological buffer, the vascular tissue was allowed to equilibrate under a resting tension of 2 g and then, stand for 1 hour at 37 °C for stabilization with a supply of a carbogen consisting of 95% O2-5% CO2.
Thereafter, the vascular tissue was constricted with 10^-5 M phenylephrine and washed several times with PSS and this procedure was repeated again to ensure the stable reacivity of vascular smooth muscle to repetitive constriction/dilatation.
In addition, 3x10^-6 M methoxamine was used to induce an intensive constriction in the vascular smooth muscle. When the vasoconstriction induced by the methoxamine reached and maintained a maximum, test compounds and controls were cumulatively added to the organ baths in concentrations of 1, 3, 10 and 30 uM so as to induce vasodilatation. As for the controls, they were Cromakalim and BMS-180448 (the compounds of the chemical formula 2), both known to be the first generation KATP activator with potent vasodilatation and cardioprotection effects.
Following the addition of the drugs, the change in the maximal constriction induced by methoxamine was calculated to plot a concentration-dilation response curve. Through a linear regression analysis, IC50, the drug concentration at which the vascular tissue is 50% dilated, was obtained for each drug.

[1] = tested on: ischemic heart models of rats; assay: Heart protective (anti-ischemic) activity in ischemic heart models of anesthetized rats; type: in vivo; settings: 45 min occlusion, 90 min reperfusion
Protocol: Male rats (350-450 g, obtained from the Experimental Animal Team of the Korea Research Institute of Chemical Technology) were anesthetized by the intraperitoneal injection of pentobarbital at a dose of 75 mg/kg. After trachetomy, the rats were rendered to respire artificially at a rate of 60/min with a stroke volume of 10 ml/kg. Cannulars were inserted into the fermoral vein and the fermoral artery and used for drug administration and blood pressure measurement, respectively.
In the ischemic myocardium damage models, the body temperature has an important influence on the results. To avoid the change in the body temperature, a body temperature measuring probe was inserted into the rectum of each rat and the body temperature was constantly kept at 37 °C with the aid of a homeothermic blanket control unit.
Afterwards, during testing, a continuous measurement was made of the mean arterial blood pressures and heart rates from the rats. For the measurement of the blood pressure, a pressure transducer, such as that manufactured by Grass Ins., MA, U.S.A., identified as Model Statham P23XL, was used. The heart rate was measured by a tachometer, such as that manufactured by Gould Inc., OH, U.S.A., identified as Biotachometer. In addition, all of the changes occurring were continuously recorded through the Gould 2000 chart recorder, manufactured by Gould Inc.
The left coronary artery was occluded according to the Selye H. method as follows. The rats underwent a left thoracotomy operation for partial opening of the chest and the right-side chest was pressurized by the middle finger of the left hand to push the heart out. Immediately after the left anterior descending coronary artery hereinafter referred to as (LAD) was carefully stitched using a suture needle with 5-0 silk ligature, the heart was then repositioned in the thoracic cavity while both ends of the ligature were situated outside. The opposite ligature ends were passed through a PE tube (PE100, 2.5 cm) and allowed to stand loose for 20 min for stabilization. Via the cannula inserted into the femoral vein, vehicles or drugs were administered into the rats which were rendered to stand for 30 min in order to sufficiently elicit the efficacies of the drugs. BMS-180448 was used as a control drug and the i.v.administration dose was 0.3 mg/kg for all test drugs of interest and the control drug.
Next, the PE tube which had the doubled strands of the ligature passed therethrough was pushed toward the heart and then, set upright by tightly pulling end regions of the ligature with a hemostatic pincette while pressing the coronary artery. The PE tube was allowed to stand for 45 min for the occlusion of the coronary artery, followed by the removal of the hemostatic pincette and then, by the reperfusion for 90 min.
After the reocclusion of the coronary artery in accordance with the above procedure, the rats were administered with 2 ml of a 1% Evans blue through an intravenous route. Subsequently, an excess of pentobarbital was intravenously injected to kill the rats, after which the heart was removed and then, deprived of the right ventricle and both atria. The left ventricle was cut horizontally to the heart apex into 5 or 6 slices which were weighed. From the surface of each slice, images were input with the aid of a Hi-scope into a computer installed with an image analyzing program (Image Pro Plus). From the images input into the computer, the area of the normal blood stream tissue region which appeared blue in a computer monitor and the area which appeared colorless were measured. The percentage of the colorless area to the total area of each slice was calculated and multiplied by the weight of each slice to determine the area at risk (AAR) of each slice. […]

[2] = tested on: ischemic heart models of beagle dogs; assay: Heart protective (anti-ischemic) activity in ischemic heart models of anesthetized beagle dogs; type: in vivo; settings: total dose 2 mg/kg infused i.v. over 40 min, 90 min occlusion, 5 h reperfusion
Protocol: In order to determine whether the compounds of the formula 1 are protective for the ischemic hearts of larger animals, experiments determining the anti-ischemic effects of the compounds on beagle dogs were conducted as follows. The experiments on beagle dogs followed the method of Grover et al.' (G. J. Grover et al., J. Cardiovasc. Pharmacol. 25, 40 (1995)).
After being anesthetized by an intravenous injection of pentobarbital at a dose of 35 mg/kg, male beagle dogs (8-12 kg) were further infused with pentobarbital sodium at a dose of 3-4 mg/kg through the right cephalic vein throughout the experiments, so as to keep the anesthesia constant. […] The heart rate was measured by a tachometer, such as that manufactured by Gould Inc., OH, U.S.A., identified as Biotachometer. In addition, all of the changes occurring during the experiment were continuously recorded through the Gould 2000 chart recorder, manufactured by Gould Inc.
The fifth intercostal space was incised to open the thorax and the LAD was separated from its surrounding tissues. […] The LAD part upstream of the silk ligature was isolated from adjacent tissues and the blood flow was measured quantitatively. […] Using polygraph such as Grass Model 7E, the electrocardiogram was measured and read (Lead II). […]

[3] = tested on: Rat aortic smooth muscle cells; assay: Inhibition of proliferation of vascular smooth muscle cells ([3H]-thymidine incorporation into DNA); type: cell-based; settings: [^3H]-thymidine into DNA; angiotensin II (10^-7M) stimulated = 100; 72 hr
Protocol: Inhibitory effects on cell proliferation was evaluated by measurement of incorporation of [^3H]-thymidine into DNA. Rat aortic smooth muscle cells were grown in 24 well plate for 3 days to near confluence in DMEM containing 10% FBS, then DMEM containing FBS was washed out. Cells were cultured again in DMEM without serum for 48 hr to be quiescent. […] During the last 4 hours of incubation, [^3H]-thymidine (1 uCi/ml) was added. […] The samples were filtered through glass microfiber filter (GF/B. Whatmann) under vacuum. After washing the filters 3 times with 2 ml of an aqueous solution of 5% TCA, the radioactivity incorporated into DNA was counted by Liquid Scintillation Counter (Packard, TRI-CARB, 2100TR), then calculated incorporation % of [^3H]-thymidine.

[4] = Acute oral toxicity test in rats; settings: rat, in vivo, single oral dose in 0.5% methyl cellulose, read-out: lethal dose (LD50) for oral administration
Summary of the method: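 Six-week-old SPF SD rats, two per group, received a single oral dose of 1 g/kg suspended in 0.5% methyl cellulose (10 ml/kg). Survivors at the end of observation underwent haematology, serum chemistry, necropsy and histopathology of vital organs with macroscopic lesions.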

diabetic rats [5] = assay: Effects on MNCV (motor nerve conduction velocity) in diabetic rats; type: in vivo; settings: MNCV; 100 mg/Kg, orally once a day, diabetic rats
Protocol: Diabetes was induced with i.p. (intra peritoneum) injection of streptozocin (65 mg/Kg) in rats, then test compounds dissolved in 2 ml of media (physiological saline: ethanol: tween 80 = 8:1:1), were orally administered once a day. Rats were anesthetized with halothane, then the sciatic nerve was exposed to measure MNCV. The nerve was stimulated at two points. The first stimulus electrode was inserted at proximal end, and second stimulating electrode was inserted at the sciatic notch. The coaxial needle electrode was inserted into interdigital muscle, then the muscle action potential induced by two point stimulation. The conduction velocity was calculated by dividing the distance between two stimulus points by the latency difference. Lipoic acid (100 mg/Kg) was used in comparison with the compound of formula 1 in recovery of impaired MNCV in diabetic rats. The recovery (%) of MNCV was calculated according to the following mathematical formula 4. [Mathematical formula 4] Recovery(%) =(MNCV of treated group - MNCV of diabetic rats)/(MNCV of normal control-MNCV of diabetic rats)x100 [formula]

diabetic rats [6] = assay: Nociceptive test (hot plate test) in diabetic rats; type: in vivo; settings: 50 °C hot plate
Protocol: Effects on nociceptive responses of test compounds in rats were examined using hot plate. The same methods were applied for the induction of diabetes and treatment of test compound in rats. Rats were placed onto 50 °C hot plate, then latencies of nociceptive action such as licking were determined. The recovery (%) of nociceptive responses in diabetic rats was calculated according to the following mathematical […]. [Mathematical formula 5] Recovery(%) =(Response in treated group - Response in diabetic control)/(Response in normal control-Response in diabetic control)x100 [formula]

CC1(C)Oc2ccc(C#N)cc2[C@@H](NC(=NC#N)Nc2ccc(Cl)cc2)[C@@H]1O [BMS-180448, reference compound]
IC50 (rat aorta): 1380 nM
Anti-ischemic Activity (in vivo, rats) (0.3 mg/kg i.v.) IZ/AAR (%) [1]: 39.14%
Anti-ischemic Activity (in vivo, dogs) (2 mg/kg/40 i.v.) min,i.v.) IZ/AAR (%) [2]: 38.02%

COC(OC)[C@]1(C)Oc2ccc([N+](=O)[O-])cc2[C@H](NC(=NC#N)NCc2ccccc2)[C@H]1O [Example 22, (2R, 3R, 4S)-N''-cyano-N (6-nitro-3,4-dihydro-3-hydroxy-2-methyl-2-dimethoxy methyl-2H-benzopyran-4-yl)-N'-benzylguanidine]
Incorporation % [3]: 64.0%
LD50 [4]: > 1000 mg/kg

O=C(O)CCCCC1CCSS1 (centres unmarked) [Lipoic acid, reference compound]
Recovery (%) (diabetic rats [5]): 136.6%
Nociceptive response (diabetic rats [6]; latency of licking): 4.371 s
Recovery (%) (diabetic rats [6]; nociceptive responses): 60.2%
